Source: paper PMC4661905, “A Mechanism of O-Demethylation of Aristolochic Acid I by Cytochromes P450 and Their Contributions to This Reaction in Human and Rat Livers: Experimental and Theoretical Approaches” (International Journal of Molecular Sciences, 2015)

How the values were obtained:
[1] = test system: CYP enzymes of liver microsomes that oxidise (demethylate) AAI to AAIa; test: Effect of CYP inhibitors on AAI oxidation to AAIa by rat liver microsomes; type: in vitro ADME; details: male, Wistar, pH 7.4, probe AAI (10 μM), inhibitor 10 μM equimolar to AAI (10 μM), 0.1 nmol CYP, mean ± SD, n = 3, NI = no inhibition, read-out: AAIa Formation (% of Control without Inhibitor) Rat Microsomes
Experimental: Microsomal fractions were prepared from livers of ten male Wistar rats (AnLab, Prague, Czech Republic) by differential centrifugation as described previously.
(§1) Incubation mixtures (250 μL) contained 100 mM potassium phosphate buffer (pH 7.4), 1 mM NADPH, 1 mg human or rat liver microsomal protein and 10 μM AAI [30, 43]. […] Control incubations were performed (i) without microsomal proteins; (ii) without NADPH; or (iii) without AAI. […] For Supersomes™, incubation mixtures (final volume 250 μL) consisted of 100 mM potassium phosphate buffer (pH 7.4), 1 mM NADP^+, 10 mM MgCl2, 10 mM D-glucose 6-phosphate, 1 U/mL D-glucose 6-phosphate dehydrogenase (NADPH-generating system), 50 nM CYPs in Supersomes™, and 10 μM AAI. Supersomes™ with POR alone were utilized as controls. AAI and its metabolites (i.e., AAIa) were extracted from incubation mixtures with 2 × 1 mL of ethyl acetate and evaporated to dryness; residues were dissolved in 30 μL of methanol and analyzed with reverse-phase HPLC as described.
(§2) Compounds were dissolved in 2.5 μL methanol (except for DDTC that was dissolved in distilled water) to yield final concentrations of 10 μM in the incubation mixtures. Inhibitors (10 μM) were incubated at 37 °C for 10 min with the NADPH-generating system prior to addition of 10 μM AAI, and then incubated for an additional 20 min at 37 °C. AAIa formation was analyzed by HPLC as described above.

[2] = test system: CYP enzymes of liver microsomes that oxidise (demethylate) AAI to AAIa; test: Effect of CYP inhibitors on AAI oxidation to AAIa by human liver microsomes; type: in vitro ADME; details: pH 7.4, probe AAI (10 μM), inhibitor 10 μM equimolar to AAI (10 μM), 0.1 nmol CYP, mean ± SD, n = 3, NI = no inhibition, read-out: AAIa Formation (% of Control without Inhibitor) Human Microsomes
Experimental: as §1, §2

CYP2C9 [3] = details: CYP2C9, with vs without cytochrome b5; cited from earlier work
CYP2C6 = test: Contribution of CYP to AAI oxidation in rat liver; type: in vitro ADME
Experimental: (§3) In order to calculate the contributions of individual CYPs to AAI oxidation in human and rat livers, we utilized the velocities of AAI oxidation to AAIa by the Supersomal CYP enzyme systems containing cytochrome b5 (Figure 2) in the combination with the data on the expression levels of CYPs in human and rat livers. The contributions of these enzymes were calculated by relative activity factor because the activities of CYP in Supersomes™ should be considered in addition to the relative contents of CYPs in the livers. Therefore, the contributions of each CYP that oxidizes AAI in livers were calculated by dividing of the relative activity of each of such CYPs oxidizing AAI [r.a.cypi] (rate of AAI oxidation multiplied by amounts of this CYP in tissues examined), by the total relative activities (∑[r.a.cypi]) of all CYPs oxidizing this substrate. Of human liver CYPs, CYP3A4 is the major enzyme present in this human organ (~30% of the CYP hepatic complement), followed by CYP2C9 and 1A2 (~15% and ~13%, respectively), while CYP2C19, 2E1 2A6, 2D6, 2C8, and 3A5 are present in human liver in levels of the range of ~8.5%–~2.5% of the liver CYPs (see [58] for an overview). CYPs of the 2C subfamily (CYP2C6, 2C11, 2C12, and 2C13) are the major enzymes expressed in rat livers accounting of ~55% of the CYP complement. Of the CYP2C complement, ~50% and ~20% correspond to CYP2C11 and 2C6, respectively. Of the other CYPs, CYP2E1, 3A, 2D, 2A, 2B, and 1A enzymes are also present in rat livers, expressed in levels of ~15%, ~10%, ~7%, ~6%, ~5%, and ~2%, respectively.

CYP2C subfamily = test: Contribution of CYP to AAI oxidation in rat liver; type: in vitro ADME
Experimental: as §3

CYP1A1 [4] = test: Contribution of CYP to AAI oxidation in rat liver; type: in vitro ADME
Experimental: as §3

CYP2C11 = test: Contribution of CYP to AAI oxidation in rat liver; type: in vitro ADME
Experimental: as §3

CYP1A subfamily = test: Contribution of CYP to AAI oxidation in rat liver; type: in vitro ADME
Experimental: as §3

human CYP1A2 = details: CYP1A2, with vs without cytochrome b5; cited from earlier work
CYP1B1 = test: Contribution of CYP to AAI oxidation in human liver; type: in vitro ADME
Experimental: as §3

CYP2E1 = test: as above; type: in vitro ADME
Experimental: as §3

CYP2C19 = test: as above; type: in vitro ADME
Experimental: as §3

CYP2C9 [5] = test: as above; type: in vitro ADME; details: from Supersomal velocities with cytochrome b5 and CYP expression levels
Experimental: as §3

CYP3A4 = test: as above; type: in vitro ADME; details: from Supersomal velocities with cytochrome b5 and CYP expression levels
Experimental: as §3

CYP1A2 = test: as above; type: in vitro ADME; details: from Supersomal velocities with cytochrome b5 and CYP expression levels
Experimental: as §3

CYP1A1 [6] = test: as above; type: in vitro ADME; details: from Supersomal velocities with cytochrome b5 and CYP expression levels
Experimental: as §3

CYP2D6 = test: as above; type: in vitro ADME
Experimental: as §3

CYP3A5 = test: as above; type: in vitro ADME
Experimental: as §3

CYP2C8 = test: as above; type: in vitro ADME
Experimental: as §3

CYP2B6 = test: as above; type: in vitro ADME
Experimental: as §3

With `CCN(CC)C(=S)S` [DDTC, diethyldithiocarbamate] the activity at 20 min, 10 μM [1] was 52 ± 4% and the activity at 20 min, 10 μM [2] was 96 ± 5%.

For `COc1cccc2c1cc([N+](=O)[O-])c1c(C(=O)O)cc3c(c12)OCO3` [AAI, aristolochic acid I], the “Increase in AAIa formation by cytochrome b5” value (CYP2C9 [3]) is listed as “not significant”, the “Contribution to AAI oxidation to AAIa” value (CYP2C6) is listed as ~ 17% and the “Contribution to AAI oxidation to AAIa” value (CYP2C subfamily) is listed as ~ 83%. For the same compound, the “Contribution to AAI oxidation to AAIa” value (CYP1A1 [4]) was ~ 1.7%, the “Contribution to AAI oxidation to AAIa” value (CYP2C11) was ~ 42% and the “Contribution to AAI oxidation to AAIa” value (CYP1A subfamily) was ~ 17%. For the same compound, the “Increase in AAIa formation by cytochrome b5” value (human CYP1A2) was “not significant”, the “Contribution to AAI oxidation to AAIa” value (CYP1B1) was “negligible” and the “Contribution to AAI oxidation to AAIa” value (CYP2E1) was ~ 1.1%. For the same compound, the “Contribution to AAI oxidation to AAIa” value (CYP2C19) was ~ 0.6%, the “Contribution to AAI oxidation to AAIa” value (CYP2C9 [5]) was ~ 15.8% and the “Contribution to AAI oxidation to AAIa” value (CYP3A4) was ~ 10.5%. The “Contribution to AAI oxidation to AAIa” value (CYP1A2) was ~ 47.5%, the “Contribution to AAI oxidation to AAIa” value (CYP1A1 [6]) was ~ 8.3% and the “Contribution to AAI oxidation to AAIa” value (CYP2D6) was “negligible”. For the same compound, the “Contribution to AAI oxidation to AAIa” value (CYP3A5) was “negligible”, the “Contribution to AAI oxidation to AAIa” value (CYP2C8) was ~ 1.0% and the “Contribution to AAI oxidation to AAIa” value (CYP2B6) was “negligible”.

`O=c1cc(-c2ccccc2)oc2c1ccc1ccccc12` [α-Napththoflavone, α-Naphthoflavone] showed an activity at 20 min, 10 μM [1] of 85 ± 5% and an activity at 20 min, 10 μM [2] of 89 ± 5%.

Compound `Nc1ccc(S(=O)(=O)Nc2ccnn2-c2ccccc2)cc1` [Sulfaphenazole, sulfaphenazole] has an activity at 20 min, 10 μM [1] of 68 ± 3% and an activity at 20 min, 10 μM [2] of over 100%.

With `Cc1nc2c([nH]1)c(=O)n(C)c(=O)n2Cc1ccco1` [Furafylline, furafylline] the activity at 20 min, 10 μM [1] was 84 ± 5% and the activity at 20 min, 10 μM [2] was 75 ± 4%.

`C=C[C@H]1C[N@@]2CC[C@H]1C[C@@H]2[C@@H](O)c1ccnc2ccc(OC)cc12` [Quinidine, quinidine] gave an activity at 20 min, 10 μM [1] of over 100% and an activity at 20 min, 10 μM [2] of over 100%.
